Test results taken from patent publication US5508293A, “Pyridinecarboxyimidamide compounds and the use thereof” (Kirin Beer Kabushiki Kaisha, priority 1992, dated 1996).

Key:
[1] = test system: spontaneously hypertensive rats (SHR), mean blood pressure; assay: Antihypertensive activities on spontaneously hypertensive rat (intravenously); format: in vivo, rat (male spontaneously hypertensive rats; settings: iv, anesthetized male SHR, i.v., cumulative dosing, read-out: ED20 (the dose which lowered the blood pressure by 20%)
Method: Animals were anesthetized with urethane: α-chloralose.
A cannula was inserted into the carotid artery for measuring the mean blood pressure via a pressure transducer. A test compound was cumulatively administered through the cannula inserted into the femoral vein with an interval of 30 minutes. Variation of blood pressure was determined as the percentage change in the blood pressure before administration of the test compound, and the ED20 (the dose which lowered the blood pressure by 20%) was calculated from a dose-response curve.

[2] = test system: spontaneously hypertensive rats (SHR), systolic blood pressure; assay: Time course of antihypertensive activity in conscious SHR (oral), Compound No. 16; format: in vivo, rat (male spontaneously hypertensive rats; settings: 3.0 mg/kg oral
Method: Time course of antihypertensive activity of 5-amino-N-cyano-N'-(2-phenethyl)pyridinecarboximidamide (Compound No. 16) was examined.
(§1) Systolic blood pressure (SBP) was measured with the tail cuff method.
The compound No. 16 was dissolved in an equivalent mixture of polyethylene glycol 200 and physiological saline, and administered orally with the aid of an oral probe. SBP was measured before administration and 1, 2, 4, 6, 8, 12 and 24 hours after administration of the compound. The results were expressed as the percentage change in SBP obtained before administration.

beagles, blood pressure = assay: Antihypertensive activity on anesthetized beagles (intravenously); format: in vivo, dog (beagles); settings: for Antihypertensive activity (%): i.v.
Method: Antihypertensive activities of 5-amino-N-cyano-N'-[2-(2-chlorophenyl)ethyl]-3-pyridinecarboximidamide (N-cyano-N'-[2-(2-chlorophenyl)ethyl]-5-(3aminopyridine)carboximidamide; Compound No. 6) according to the present invention was assessed by comparison with those of N-cyano-N'-[2-(2-chlorophenyl)ethyl]-3-pyridinecarboximidamide which is thought to be a wellknown compound most similar to the compound of the present invention (see Japanese Patent Laid-Open Publication No. 163061/1991).
Experiments were carried out with beagles (body weight, 9.2-10.4 kg) under anesthetization by intravenous administering 30 mg/kg of pentobarbital sodium. A cannula was inserted into the right femoral artery for measuring blood pressure. […]

rat aorta = assay: Vasodilating effect in a rat aorta (relaxation of KCl-induced contraction); parameters: species or system rat (male Wistar rat); settings: isolated rat thoracic aorta, 40 mM KCl; read-out: IC50 (concentration for inhibiting 50% of the tension induced by KCl)
Method: Physiological effect of the compound of the present invention was tested by the method with use of an isolated rat aorta.
Thoracic aorta was isolated from a male Wistar rat (body weight, 250-350 g) exsanguinated to death for obtaining ring preparations having a width of 3 mm. The preparations were suspended into an organ bath filled with the Krebs-Ringer solution through which a mixed gas of 95% O2 and 5% CO2 had been aerated at 37° C. A resting tension of 1 g was applied to the preparation. After the tension in the preparation was stabilized, the solution in the organ bath was exchanged with an equimolar solution containing 40 mM KC1 to increase the tension of the preparation. When the tension induced by KCl become stable, the test compound was cumulatively added to the organ bath to relax the preparation. Relaxation response was expressed as percentage inhibition of KCl-induced contraction, and the IC50 value (concentration for inhibiting 50% of the tension induced by KCl) was calculated from the average concentration-response curve by the Probit method.

[3] = test system: coronary blood flow (circumflex branch of the left coronary artery), beagles; assay: Coronary dilating effect on beagles (coronary blood flow, anesthetized dog); format: in vivo; settings: i.v., 10 Mg/Kg
Method: Coronary dilating effects of 5-amino-N-cyano-N'-(2-nitroxyethyl)-3-pyridinecarboximidamide (Compound No. 18) of the present invention was assessed by comparison with those of N-cyano-N'-(2-nitroxyethyl)-3-pyridinecarboximidamide methanesulfonic acid (compound described in Japanese Patent Laid-Open Publication No. 163061/1991) which is thought to be a well-known compound most similar to the compound of the present invention.
A dog (body weight, 8.3 kg) was anesthetized with 30 mg/kg of pentobarbital sodium intravenously. Respiration was maintained with room air through a cuffed endotracheal tube. The drug was administered through the femoral vein, and the coronary blood flow was measured by a probe attached to the circumflex branch of the left coronary artery.

[4] = test system: spontaneously hypertensive rats (SHR), systolic blood pressure; assay: Antihypertensive effects on conscious SHR (oral), Compound Nos. 18 and 19; format: in vivo, rat (male spontaneously hypertensive rats; settings: 3.0 mg/kg oral
Method: Antihypertensive effects of- 5-amino-N-cyano-N'-(2-nitroxyethyl)-3-pyridinecarboximidamide (N-cyano-N'-(2-nitroxyethyl)-5-(3-aminopyridine)carboximidamide; Compound No. 18) and N-cyano-5-ethylamino-N'-(2-nitroxyethyl)-3-pyridinecarboximidamide (N-cyano-N'-(2-nitroxyethyl)-5-[3-(N-ethylaminopyridine)]carboximidamide; Compound No. 19) were assessed by comparison with those of the methanesulfonate salt of N-cyano-N'-(2-nitroxyethyl)-3-pyridinecarboximidamide (compound described in Japanese Patent Laid-Open Publication No. 163061/1991) as a reference compound which is thought to be a well-known compound most similar to the compound of the present invention.
as §1
Each of the compound Nos. 18 and 19 was dissolved in an equivalent mixture of polyethylene glycol 200 and physiological saline, and the reference compound was dissolved in physiological saline. The compounds were administered orally with the aid of an oral probe. SBP was measured before administration and 1, 2, 4, 6, 8, 12 and 24 hours after administration of the compound. The results were expressed as the percentage change in SBP observed before administration.

`N#CN=C(NCCc1ccccc1)c1cncc(N)c1` [Compound No. 16, 5-amino-N-cyano-N'-(2-phenethyl)-3-pyridine-carboximidamide] was tested, and the ED20 [1] was 0.028 mg/kg, the “decrease in blood pressure” value [2] was “decrease in blood pressure was observed” and the “duration of the antihypertensive effect” value [2] was ≥ 12 h. The “percentage change in SBP obtained before administration” value (shortened to “percentage change”) ([2]; 1 hour after administration) was -45.3%, the “percentage change” value ([2]; 2 hour after administration) was -23.9% and the “percentage change” value ([2]; 4 hour after administration) was -42.3%. The “percentage change” value ([2]; 6 hour after administration) was -27.9%, the “percentage change” value ([2]; 8 hour after administration) was -22.8% and the “percentage change” value ([2]; 12 hour after administration) was -15.1%. The “percentage change” value ([2]; 24 hour after administration) was -8.2%.
For `N#CNC(=NCCc1ccccc1Cl)c1cccnc1` [N-cyano-N'-[2-(2-chlorophenyl)ethyl]-3-pyridinecarboximidamide, reference compound], the “decrease in blood pressure” value (beagles, blood pressure; 10 and 30 μg/kg) was “decrease in blood pressure was observed”, the “recovery of the decrease in blood pressure after administration” value (beagles, blood pressure; both doses, 10 and 30 μg/kg) was ≤ 10 min and the “Antihypertensive activity (%)” value (beagles, blood pressure; dose 3 μg/kg, 0 min after dosage) was 0.0%. For the same compound, the “Antihypertensive activity (%)” value (beagles, blood pressure; dose 3 μg/kg, 1 min after dosage) was 0.0%, the “Antihypertensive activity (%)” value (beagles, blood pressure; dose 3 μg/kg, 2 min after dosage) was 1.9% and the “Antihypertensive activity (%)” value (beagles, blood pressure; dose 3 μg/kg, 3 min after dosage) was 1.9%. The “Antihypertensive activity (%)” value (beagles, blood pressure; dose 10 μg/kg, 0 min after dosage) was 0.0%, the “Antihypertensive activity (%)” value (beagles, blood pressure; dose 10 μg/kg, 1 min after dosage) was -23.4% and the “Antihypertensive activity (%)” value (beagles, blood pressure; dose 10 μg/kg, 2 min after dosage) was -17.7%. The “Antihypertensive activity (%)” value (beagles, blood pressure; dose 10 μg/kg, 3 min after dosage) was -13.1%, the “Antihypertensive activity (%)” value (beagles, blood pressure; dose 10 μg/kg, 5 min after dosage) was -4.7% and the “Antihypertensive activity (%)” value (beagles, blood pressure; dose 30 μg/kg, 0 min after dosage) was 0.0%. The “Antihypertensive activity (%)” value (beagles, blood pressure; dose 30 μg/kg, 1 min after dosage) was -41.7%, the “Antihypertensive activity (%)” value (beagles, blood pressure; dose 30 μg/kg, 2 min after dosage) was -39.8% and the “Antihypertensive activity (%)” value (beagles, blood pressure; dose 30 μg/kg, 3 min after dosage) was -33.3%. For the same compound, the “Antihypertensive activity (%)” value (beagles, blood pressure; dose 30 μg/kg, 5 min after dosage) was -16.7%, the “Antihypertensive activity (%)” value (beagles, blood pressure; dose 30 μg/kg, 7.5 min after dosage) was -2.8% and the “Antihypertensive activity (%)” value (beagles, blood pressure; dose 30 μg/kg, 10 min after dosage) was -0.9%.
Compound `N#CNC(=NCCO[N+](=O)[O-])c1ccc(N)nc1` [compound 20, 6-amino-N-cyano-N'-(2-nitroxyethyl)-3-pyridinecarboximidamide] has an IC50 (rat aorta) of 2.7 µM.
In the case of `Cc1cncc(C(=NCCc2ccccc2Cl)NC#N)c1` [Compound No. 1, N-cyano-N'-[2-(2-chlorophenyl)ethyl]-5-methyl-3-pyridinecarboximidamide], the ED20 [1] is reported as 0.0171 mg/kg.
In the case of `CC(=O)Nc1cncc(C(=NC#N)NCCc2ccccc2Cl)c1` [compound 7, 5-acetamide-N-cyano-N'-[2-(2-chlorophenyl)-ethyl]-3-pyridinecarboximidamide], the ED20 [1] is reported as 0.0123 mg/kg.
Compound `N#CNC(=NCCc1ccccc1Cl)c1ccc(N)nc1` [compound 5, 6-amino-N-cyano-N'-[2-(2-chlorophenyl)ethyl]-3-pyridinecarboximidamide] has an ED20 [1] of 0.0333 mg/kg.
For `N#CNC(=NCCO[N+](=O)[O-])c1cccnc1` [Reference Compound, N-cyano-N'-(2-nitroxyethyl)-3-pyridinecarboximidamide, reference compound], the “increase of coronary blood flow” value [3] was “increase in coronary blood flow was observed”, the “time for which the increase of coronary blood flow was retained” value [3] was ≤ 10 min and the “percent change of coronary blood flow as compared with the blood flow before administration” value (shortened to “percent change of coronary blood flow”) ([3]; 1 min after dosage) was 219.0%. The “percent change of coronary blood flow” value ([3]; 3 min after dosage) was 42.9%, the “percent change of coronary blood flow” value ([3]; 5 min after dosage) was 14.3% and the “percent change of coronary blood flow” value ([3]; 10 min after dosage) was 0.0%. For the same compound, the “decrease in blood pressure / antihypertensive effect” value [4] was “antihypertensive effect was also observed”, the “duration of the antihypertensive effect” value [4] was “about 6 hours” and the “percent change in SBP observed before administration of the compound” value (“percent change … of the compound” below) ([4]; 1 hour after administration) was -55.9%. The “percent change … of the compound” value ([4]; 2 hour after administration) was -41.5%, the “percent change … of the compound” value ([4]; 4 hour after administration) was -10.6% and the “percent change … of the compound” value ([4]; 6 hour after administration) was -6.8%.
`CCNc1cncc(C(=NCCc2ccccc2Cl)NC#N)c1` [compound 10, N-cyano-N'-[2-(2-chlorophenyl)ethyl]-5-ethylamino-3-pyridinecarboximidamide] gave an ED20 [1] of 0.0079 mg/kg.
Compound `N#CNC(=NCCc1ccccc1Cl)c1cncc(CO)c1` [compound 3, N-cyano-N'-[2-(2-chlorophenyl)ethyl]-5-hydroxymethyl-3-pyridinecarboximidamide] has an ED20 [1] of 0.0087 mg/kg.
In the case of `CCc1cncc(C(=NCCc2ccccc2Cl)NC#N)c1` [compound 2, N-cyano-N'-[2-(2-chlorophenyl)ethyl]-5-ethyl-3-pyridinecarboximidamide], the ED20 [1] is reported as 0.007 mg/kg.
In the case of `CCN(CC)c1ccc(C(=NCCO[N+](=O)[O-])NC#N)cn1` [compound 21, N-cyano-6-diethylamino-N'-(2-nitroxyethyl)-3-pyridinecarboximidamide], the IC50 (rat aorta) is reported as 4.6 µM.
`CCNc1cncc(C(=NCCO[N+](=O)[O-])NC#N)c1` [Compound No. 19, N-cyano-5-ethylamino-N'-(2-nitroxyethyl)-3-pyridinecarboximidamide] was tested, and the IC50 (rat aorta) was 10 µM, the “decrease in blood pressure / antihypertensive effect” value [4] was “decrease in blood pressure was observed” and the “duration of the antihypertensive effect” value [4] was ≥ 12 h. For the same compound, the “percent change … of the compound” value ([4]; 1 hour after administration) was -60.2%, the “percent change … of the compound” value ([4]; 2 hour after administration) was -47.2% and the “percent change … of the compound” value ([4]; 4 hour after administration) was -24.3%. For the same compound, the “percent change … of the compound” value ([4]; 6 hour after administration) was -23.9%, the “percent change … of the compound” value ([4]; 8 hour after administration) was -25.9% and the “percent change … of the compound” value ([4]; 12 hour after administration) was -27.7%. The “percent change … of the compound” value ([4]; 24 hour after administration) was -9.8%.
